Measured values reported in US20240254439A1, “METHOD FOR PREPARING TASTE BUD ORGANOIDS USING ANTERIOR TONGUE EPITHELIAL CELLS” (Korea University Research and Business Foundation, priority 2023, published 2024).

Key:
[1] = system: taste bud organoids from anterior tongue epithelial tissue; test: Differentiation into taste cells in anterior tongue taste bud organoids, immunofluorescence staining of taste cell markers; type: cell-based, mouse
Procedure: (§1) The tongue was collected from a mouse, and dispase II enzyme (2 mg/mL) (Roche, cat #4942078001) diluted in physiological saline was injected into the space between the epithelium and subepithelial connective tissue to expand the tongue tissue ((2) in FIG. 1), and the expanded tongue tissue was cultured in dispase II enzyme dilution at 37° C. for 30 minutes. The epithelial layer is peeled off from the subepithelial connective tissue to separate the epithelial lamina therefrom, and it is cut into as small an area as possible using tools such as sterilized surgical scissors or a knife in trypsin/EDTA (Gibco, cat #25200072) solution. The finely cut tissues were cultured at 37° C. for 30 minutes. Thereafter, the finely cut tissues are subjected to pressure by continuous pipetting to extract cells from the tissue and form a single cell suspension. The cell pellets obtained by centrifuging this suspension are embedded in an extracellular matrix such as Matrigel at an appropriate ratio.
(§2) All culture media are based on basic culture medium (DMEM/F12+1×GlutaMax+1×HEPES+1×N2 supplement+1×B27 supplement+1×penicillin/streptomycin).
(§3) The single cells embedded in the Matrigel were cultured in differentiation medium 1 (FIRNY+SAG) for 4 days, then cultured for 10 days, while replacing the culture medium with differentiation medium 2 (FIRN+SAG+CHIR_SU5402) and changing the medium culture every 2-3 days.
In culturing taste bud organoids from anterior tongue epithelial tissue, it was confirmed by immunofluorescence staining that when SAG-containing basic culture medium was treated with CHIR99021 (CHIR), which stimulates the Wnt and Notch signaling pathways, the differentiation efficiency into type 1, type 2 and type 3 taste cells all increased (FIG. 4).
In order to confirm the optimization of the expression efficiency of markers for cells that make up taste buds in organoids and the differentiation efficiency into cells that make up taste buds by components other than CHIR, CHIR was added after the first 3 days of culture, and organoids were cultured in culture medium in which FGF was removed or SU5402 was additionally added. As a result, it was confirmed by immunofluorescence staining that when FGF was removed or SU5402 was additionally input after 3 days of culture, the differentiation efficiency into type 2 and type 3 taste cells increased (FIG. 6).

[2] = system: taste bud organoids from anterior tongue epithelial tissue; test: Culture efficiency (growth efficiency, size) of taste bud organoids from anterior tongue epithelial tissue; type: cell-based, mouse; settings: added alone or in combination to basic culture medium supplemented with R-spondin1 and noggin; SAG added under all these conditions (FIG. 2)
Procedure: as §1, §2, §3

Molecule: CNC1CCC(N(Cc2cccc(-c3ccncc3)c2)C(=O)c2sc3ccccc3c2Cl)CC1 (stereo not drawn) [SAG]
- differentiation into type 1, type 2 and type 3 taste cells ([1]; SAG added to basic culture medium with R-spondin1 and noggin, with or without EGF, FGF2, IGF1 (FIG. 3)): differentiation into type 1, type 2 and type 3 taste cells was confirmed
- growth efficiency or size of the organoid itself [2]: no change

Molecule: Cc1cnc(-c2cnc(NCCNc3ccc(C#N)cn3)nc2-c2ccc(Cl)cc2Cl)[nH]1 [CHIR99021]
- differentiation efficiency into type 1, type 2 and type 3 taste cells ([1]; SAG-containing basic culture medium treated with CHIR99021, immunofluorescence staining (FIG. 4)): all increased
- differentiation efficiency into type 1, type 2 and type 3 taste cells by CHIR-treated time ([1]; treated with CHIR on days 3, 5 or 7, immunofluorescence staining (FIG. 5)): the earlier treatment with CHIR, the higher the differentiation efficiency

Molecule: EGF: growth factor added to the basic culture medium (NSDSECPLSHDGYCLHDGVCMYIEALDKYACNCVVGYIGERCQYRDLKWWELR; UniProt P01133 971-1023, looked up)
- growth efficiency or size of the organoid itself [2]: no change

Molecule: Cc1c[nH]c(/C=C2\C(=O)Nc3ccccc32)c1CCC(=O)O [SU5402]
- differentiation efficiency into type 2 and type 3 taste cells ([1]; CHIR added after the first 3 days of culture, SU5402 additionally input after 3 days, immunofluorescence staining (FIG. 6)): increased

Molecule: FGF2: fibroblast growth factor 2, protein that regulates cell growth, proliferation and differentiation
- differentiation efficiency into taste cells ([1]; growth factor added to SAG-containing medium with R-spondin1 and noggin, immunofluorescence staining (FIG. 3)): differentiation efficiency increased
- growth efficiency or size of the organoid itself [2]: no change

Molecule: IGF1: insulin-like growth factor 1, protein that regulates cell growth, proliferation and differentiation
- growth efficiency or size of the organoid itself [2]: no change
